Patent US20240174690A1, “ANNULATED 2-AMINO-3-CYANO THIOPHENES AND DERIVATIVES FOR THE TREATMENT OF CANCER” (BOEHRINGER INGELHEIM INTERNATIONAL GMBH, priority 2021, published 2024)

What was measured:
[1] = system: AsPC-1 cells; assay: AsPC-1 CTG proliferation assay (120 h) (pancreatic cancer, G12D); assay type: cell-based; details: Homo sapiens, ASPC1
In short: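 CellTiter-Glo luminescence, normalised to DMSO wells, measured viability after 120 h compound exposure. Cells were AsPC-1 pancreatic cancer (G12D) plated at 2000 per well in RPMI/10% FCS the day before dosing. IC50 derived by four-parameter regression.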

[2] = Metabolic (microsomal) stability assay, human liver microsomes (HLM); assay type: in vitro ADME; details: predicted clearance as percent of liver blood flow, 1 μM
In short: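 LC-MS/MS tracked parent disappearance at 0, 5, 15, 30 and 60 min in NADPH-initiated incubations with 1 mg/mL human microsomal protein and 1 μM compound at 37°C, pH 7.5. First-order fits gave intrinsic clearance, which was scaled up and reported as % QH. NADPH-free controls were also run.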

SMILES | IC50 [1] [nM] | HLM QH [2] [%]
C[C@H](Oc1cc(-n2ccc(C(=O)N3CCCC3)n2)nc(-c2noc3c2CCC[C@@]32CCCc3sc(N)c(C#N)c32)n1)[C@@H]1CCCN1C [II-19] | 870 | 30
CNC(=O)c1ccn(-c2cc(O[C@@H](C)[C@@H]3CCCN3C)nc(-c3noc4c3CCC[C@@]43CCCc4sc(N)c(C#N)c43)n2)n1 [II-20] | 1030 | <24
CCOC(=O)c1ccn(-c2cc(O[C@@H](C)[C@@H]3CCCN3C)nc(-c3noc4c3CCC[C@@]43CCCc4sc(N)c(C#N)c43)n2)n1 [II-23] | 1640 | <24
C[C@H](Oc1cc(-n2ccc(C(=O)O)n2)nc(-c2noc3c2CCC[C@@]32CCCc3sc(N)c(C#N)c32)n1)[C@@H]1CCCN1C [II-24] | > 25000 | <24
C[C@H](Oc1cc(-n2ccc(C(=O)NC3COC3)n2)nc(-c2noc3c2CCC[C@@]32CCCc3sc(N)c(C#N)c32)n1)[C@@H]1CCCN1C [II-25] | 891 | <24
C[C@H](Oc1cc(-n2ccc(C(=O)NC3(C)COC3)n2)nc(-c2noc3c2CCC[C@@]32CCCc3sc(N)c(C#N)c32)n1)[C@@H]1CCCN1C [II-26] | 1380 | <24
C[C@H](Oc1cc(-c2ccn(C)n2)nc(-c2noc3c2CCC[C@@]32CCCc3sc(N)c(C#N)c32)n1)[C@@H]1C[C@@H](F)CN1C [II-27] | 4100 | 44
C[C@H](Oc1cc(-c2cnn(C)n2)nc(-c2noc3c2CCC[C@@]32CCCc3sc(N)c(C#N)c32)n1)[C@@H]1C[C@@H](F)CN1C [II-28] | 5070 | 51
C[C@H]1CN(C)CCCN1c1cc(N2CCN(C)CC2)nc(-c2noc3c2CCC[C@@]32CCCc3sc(N)c(C#N)c32)n1 [II-30] | 2380 | <24
C[C@H](Oc1cc(N2C[C@H]3CN(C)C[C@H]3C2)nc(-c2noc3c2CCC[C@@]32CCCc3sc(N)c(C#N)c32)n1)[C@@H]1CCCN1C [II-33] | 1410 | <24
C[C@H](Oc1cc(N2CC3CCC(C2)N3)nc(-c2noc3c2CCC[C@@]32CCCc3sc(N)c(C#N)c32)n1)[C@@H]1CCCN1C [II-34] | 1420 | <24
C[C@@H]1CN(c2cc(O[C@@H](C)[C@@H]3CCCN3C)nc(-c3noc4c3CCC[C@@]43CCCc4sc(N)c(C#N)c43)n2)C[C@H](C)N1 [II-36] | 990 | <24
C[C@H](Oc1cc([C@@H]2CCN(C)C2)nc(-c2noc3c2CCC[C@@]32CCCc3sc(N)c(C#N)c32)n1)[C@@H]1CCCN1C [II-37] | 1450 | <24
C[C@H](Oc1cc(N2CCN(C)CC2)nc(-c2noc3c2CCC[C@@]32CCCc3sc(N)c(C#N)c32)n1)[C@@H]1CCCN1[C@@H]1CCOC1 [II-39] | 1760 | 52
C[C@H](Oc1cc(-c2ccn([C@H]3CCCOC3)n2)nc(-c2noc3c2CCC[C@@]32CCCc3sc(N)c(C#N)c32)n1)[C@@H]1CCCN1C [II-42] | 1890 | <24
C[C@H](Oc1cc(-c2ccn(C[C@@H]3CCCO3)n2)nc(-c2noc3c2CCC[C@@]32CCCc3sc(N)c(C#N)c32)n1)[C@@H]1CCCN1C [II-43] | 2050 | <24
C[C@H](Oc1cc(C2CCCO2)nc(-c2noc3c2CCC[C@@]32CCCc3sc(N)c(C#N)c32)n1)[C@@H]1CCCN1C (some centres unmarked) [II-44] | 2160 | 31
C[C@H](Oc1nc(-c2noc3c2CCC[C@@]32CCCc3sc(N)c(C#N)c32)cc(N2C[C@H](C)N[C@@H](C)C2)n1)[C@@H]1CCCN1C [II-46] | 2740 | 27
C[C@H](Oc1cc(N2CC[C@@H](N(C)C)C2)nc(-c2noc3c2CCC[C@@]32CCCc3sc(N)c(C#N)c32)n1)[C@@H]1CCCN1C [II-47] | 991 | <24
C[C@H](Oc1cc(N2CCC(N(C)C)CC2)nc(-c2noc3c2CCC[C@@]32CCCc3sc(N)c(C#N)c32)n1)[C@@H]1CCCN1C [II-48] | 1490 | <24
C[C@H](Oc1cc(-n2ccsc2=O)nc(-c2noc3c2CCC[C@@]32CCCc3sc(N)c(C#N)c32)n1)[C@@H]1CCCN1C [II-135] | 1390 | 54

Stronger by IC50 [1], values ahead:

IC50 [1] [nM] | HLM QH [2] [%] | SMILES
713 | <24 | CN[C@H]1CCN(c2cc(O[C@@H](C)[C@@H]3CCCN3C)nc(-c3noc4c3CCC[C@@]43CCCc4sc(N)c(C#N)c43)n2)C1 [II-35]
694 | <24 | C[C@H](Oc1cc(-n2ccc(C(N)=O)n2)nc(-c2noc3c2CCC[C@@]32CCCc3sc(N)c(C#N)c32)n1)[C@@H]1CCCN1C [II-21]
385 | <24 | C[C@H](Oc1cc(N2CCNC(C)(C)C2)nc(-c2noc3c2CCC[C@@]32CCCc3sc(N)c(C#N)c32)n1)[C@@H]1CCCN1C [II-32]
269 | <24 | C[C@H](Oc1cc(N2CCNC3(CCCC3)C2)nc(-c2noc3c2CCC[C@@]32CCCc3sc(N)c(C#N)c32)n1)[C@@H]1CCCN1C [II-41]
261 | <24 | C[C@H](Oc1cc(N2CCNC3(CCC3)C2)nc(-c2noc3c2CCC[C@@]32CCCc3sc(N)c(C#N)c32)n1)[C@@H]1CCCN1C [II-40]
213 | <24 | C[C@H](Oc1cc([C@H]2CCN(C)C2)nc(-c2noc3c2CCC[C@@]32CCCc3sc(N)c(C#N)c32)n1)[C@@H]1CCCN1C [II-38]
59 | 40 | [2H]C([2H])([2H])N1C[C@H](F)C[C@H]1[C@H](C)Oc1cc(N2CCN(C)C3(CC3)C2)nc(-c2noc3c2CCC[C@@]32CCCc3sc(N)c(C#N)c32)n1 [II-209]
45 | 58 | C[C@H](Oc1cc(N2C[C@H](C)NC3(CC3)C2)nc(-c2noc3c2CCC[C@@]32CCCc3sc(N)c(C#N)c32)n1)[C@@H]1C[C@@H](F)CN1C [II-18]
42 | 42 | C[C@H](Oc1cc(N2CCNC3(COC3)C2)nc(-c2noc3c2CCC[C@@]32CCCc3sc(N)c(C#N)c32)n1)[C@@H]1CCCN1C [II-31]
15 | 48 | [2H]C([2H])([2H])N1C[C@H](F)C[C@H]1[C@H](C)Oc1cc(N2CCNC3(CC3)C2)nc(-c2noc3c2CCC[C@@]32CCCc3sc(N)c(C#N)c32)n1 [II-208]
